Results published in ChEMBL document CHEMBL4507269, “Data for DCP probe BAY-386” (2021).

Columns and labels:
[1] = target: Motilin receptor (Homo sapiens) (UniProt O43193); test: motilin (h) Eurofins-Cerep Cellular and Nuclear Receptor Functional Assays; details: Compound concentration 10.0 uM
[2] = target: P2Y purinoceptor 2 (Homo sapiens) (UniProt P41231); test: P2Y2 (h) Eurofins-Cerep Cellular and Nuclear Receptor Functional Assays; details: Compound concentration 10.0 uM
[3] = tested on: Tyrosine-protein kinase ABL1 (Homo sapiens), P00519 [F317I]; details: Compound concentration 1000.0 nM
[4] = tested on: Tyrosine-protein kinase ABL1 (Homo sapiens), P00519 [F317I]; details: Compound concentration 1000.0 nM; remark: listed apart in the source
[5] = target: Mitogen-activated protein kinase kinase kinase 6 (Homo sapiens) (UniProt O95382); details: Compound concentration 1000.0 nM
[6] = target: Aurora kinase B (Homo sapiens) (UniProt Q96GD4); details: Compound concentration 1000.0 nM
[7] = target: Serine/threonine-protein kinase BRSK1 (Homo sapiens) (UniProt Q8TDC3); details: Compound concentration 1000.0 nM
[8] = target: Calcium/calmodulin-dependent protein kinase type II subunit delta (Homo sapiens) (UniProt Q13557); details: Compound concentration 1000.0 nM
[9] = target: Calcium/calmodulin-dependent protein kinase type IV (Homo sapiens) (UniProt Q16566); details: Compound concentration 1000.0 nM
[10] = target: Cyclin-dependent kinase-like 3 (Homo sapiens) (UniProt Q8IVW4); details: Compound concentration 1000.0 nM
[11] = target: Cyclin-dependent kinase-like 5 (Homo sapiens) (UniProt O76039); details: Compound concentration 1000.0 nM
[12] = target: Tyrosine-protein kinase CSK (Homo sapiens) (UniProt P41240); details: Compound concentration 1000.0 nM
[13] = target: Casein kinase I isoform gamma-2 (Homo sapiens) (UniProt P78368); details: Compound concentration 1000.0 nM
[14] = target: Serine/threonine-protein kinase DCLK2 (Homo sapiens) (UniProt Q8N568); details: Compound concentration 1000.0 nM
[15] = target: Receptor tyrosine-protein kinase erbB-4 (Homo sapiens) (UniProt Q15303); details: Compound concentration 1000.0 nM
[16] = target: Fibroblast growth factor receptor 1 (Homo sapiens) (UniProt P11362); details: Compound concentration 1000.0 nM
[17] = tested on: Receptor-type tyrosine-protein kinase FLT3 (Homo sapiens), P36888 [UNDEFINED MUTATION]; details: Compound concentration 1000.0 nM
[18] = target: Beta-adrenergic receptor kinase 1 (Homo sapiens) (UniProt P25098); details: Compound concentration 1000.0 nM
[19] = target: Hormonally up-regulated neu tumor-associated kinase (Homo sapiens) (UniProt P57058); details: Compound concentration 1000.0 nM
[20] = target: Tyrosine-protein kinase JAK1 (Homo sapiens) (UniProt P23458); details: Compound concentration 1000.0 nM
[21] = target: Mitogen-activated protein kinase 10 (Homo sapiens) (UniProt P53779); details: Compound concentration 1000.0 nM
[22] = target: Mitogen-activated protein kinase kinase kinase 13 (Homo sapiens) (UniProt O43283); details: Compound concentration 1000.0 nM
[23] = target: Mitogen-activated protein kinase kinase kinase kinase 2 (Homo sapiens) (UniProt Q12851); details: Compound concentration 1000.0 nM
[24] = target: Mitogen-activated protein kinase kinase kinase 9 (Homo sapiens) (UniProt P80192); details: Compound concentration 1000.0 nM
[25] = target: Mitogen-activated protein kinase kinase kinase 10 (Homo sapiens) (UniProt Q02779); details: Compound concentration 1000.0 nM
[26] = target: Serine/threonine-protein kinase 24 (Homo sapiens) (UniProt Q9Y6E0); details: Compound concentration 1000.0 nM
[27] = target: Serine/threonine-protein kinase PAK 1 (Homo sapiens) (UniProt Q13153); details: Compound concentration 1000.0 nM
[28] = tested on: Phosphatidylinositol 4,5-bisphosphate 3-kinase catalytic subunit alpha isoform (Homo sapiens), P42336 [E545A]; details: Compound concentration 1000.0 nM
[29] = target: Phosphatidylinositol 4-phosphate 5-kinase type-1 alpha (Homo sapiens) (UniProt Q99755); details: Compound concentration 1000.0 nM
[30] = target: cAMP-dependent protein kinase catalytic subunit alpha (Homo sapiens) (UniProt P17612); details: Compound concentration 1000.0 nM
[31] = target: cAMP-dependent protein kinase catalytic subunit PRKX (Homo sapiens) (UniProt P51817); details: Compound concentration 1000.0 nM
[32] = target: Ribosomal protein S6 kinase alpha-2 (Homo sapiens) (UniProt Q15349); details: Compound concentration 1000.0 nM
[33] = target: SRSF protein kinase 2 (Homo sapiens) (UniProt P78362); details: Compound concentration 1000.0 nM
[34] = target: Mitogen-activated protein kinase kinase kinase 7 (Homo sapiens) (UniProt O43318); details: Compound concentration 1000.0 nM
[35] = target: Angiopoietin-1 receptor (Homo sapiens) (UniProt Q02763); details: Compound concentration 1000.0 nM
[36] = target: Serine/threonine-protein kinase tousled-like 1 (Homo sapiens) (UniProt Q9UKI8); details: Compound concentration 1000.0 nM
[37] = target: Non-receptor tyrosine-protein kinase TYK2 (Homo sapiens) (UniProt P29597); details: Compound concentration 1000.0 nM
[38] = target: Non-receptor tyrosine-protein kinase TYK2 (Homo sapiens) (UniProt P29597); details: Compound concentration 1000.0 nM; remark: listed apart in the source
[39] = target: Serine/threonine-protein kinase ULK1 (Homo sapiens) (UniProt O75385); details: Compound concentration 1000.0 nM
[40] = target: Serine/threonine-protein kinase ULK3 (Homo sapiens) (UniProt Q6PHR2); details: Compound concentration 1000.0 nM
[41] = target: Serine/threonine-protein kinase WNK4 (Homo sapiens) (UniProt Q96J92); details: Compound concentration 1000.0 nM
[42] = target: Serine/threonine-protein kinase 32A (Homo sapiens) (UniProt Q8WU08); details: Compound concentration 1000.0 nM
[43] = target: Histamine H4 receptor (Homo sapiens) (UniProt Q9H3N8); details: Compound concentration 10.0 uM
[44] = target: Beta-2 adrenergic receptor (Homo sapiens) (UniProt P07550); details: Compound concentration 10.0 uM

Sequence of P2Y purinoceptor 2 (Homo sapiens) (P41231 whole entry): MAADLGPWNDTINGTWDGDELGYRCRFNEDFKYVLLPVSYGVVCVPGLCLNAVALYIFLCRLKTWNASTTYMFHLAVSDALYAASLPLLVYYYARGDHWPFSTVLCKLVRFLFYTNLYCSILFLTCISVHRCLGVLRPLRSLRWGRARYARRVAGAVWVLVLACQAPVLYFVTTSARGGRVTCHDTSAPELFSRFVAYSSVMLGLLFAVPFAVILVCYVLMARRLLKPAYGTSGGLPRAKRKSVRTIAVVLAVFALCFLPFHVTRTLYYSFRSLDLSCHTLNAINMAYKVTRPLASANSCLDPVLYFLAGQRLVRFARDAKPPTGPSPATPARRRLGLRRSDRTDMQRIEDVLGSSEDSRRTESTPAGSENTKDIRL
Sequence of Motilin receptor (Homo sapiens) (O43193 whole entry): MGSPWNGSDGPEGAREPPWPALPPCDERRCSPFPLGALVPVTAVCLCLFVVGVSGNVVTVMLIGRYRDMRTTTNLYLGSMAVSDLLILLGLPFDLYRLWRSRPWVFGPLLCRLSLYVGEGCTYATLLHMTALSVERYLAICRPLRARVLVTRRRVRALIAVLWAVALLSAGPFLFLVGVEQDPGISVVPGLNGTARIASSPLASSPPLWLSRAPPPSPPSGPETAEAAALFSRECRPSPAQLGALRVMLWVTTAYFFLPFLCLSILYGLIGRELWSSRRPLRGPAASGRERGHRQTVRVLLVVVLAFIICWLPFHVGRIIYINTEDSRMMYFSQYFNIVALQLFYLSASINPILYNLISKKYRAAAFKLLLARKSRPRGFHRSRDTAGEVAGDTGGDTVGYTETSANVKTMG
Sequence of Tyrosine-protein kinase ABL1 (Homo sapiens), P00519 [F317I] (P00519 whole entry F317I): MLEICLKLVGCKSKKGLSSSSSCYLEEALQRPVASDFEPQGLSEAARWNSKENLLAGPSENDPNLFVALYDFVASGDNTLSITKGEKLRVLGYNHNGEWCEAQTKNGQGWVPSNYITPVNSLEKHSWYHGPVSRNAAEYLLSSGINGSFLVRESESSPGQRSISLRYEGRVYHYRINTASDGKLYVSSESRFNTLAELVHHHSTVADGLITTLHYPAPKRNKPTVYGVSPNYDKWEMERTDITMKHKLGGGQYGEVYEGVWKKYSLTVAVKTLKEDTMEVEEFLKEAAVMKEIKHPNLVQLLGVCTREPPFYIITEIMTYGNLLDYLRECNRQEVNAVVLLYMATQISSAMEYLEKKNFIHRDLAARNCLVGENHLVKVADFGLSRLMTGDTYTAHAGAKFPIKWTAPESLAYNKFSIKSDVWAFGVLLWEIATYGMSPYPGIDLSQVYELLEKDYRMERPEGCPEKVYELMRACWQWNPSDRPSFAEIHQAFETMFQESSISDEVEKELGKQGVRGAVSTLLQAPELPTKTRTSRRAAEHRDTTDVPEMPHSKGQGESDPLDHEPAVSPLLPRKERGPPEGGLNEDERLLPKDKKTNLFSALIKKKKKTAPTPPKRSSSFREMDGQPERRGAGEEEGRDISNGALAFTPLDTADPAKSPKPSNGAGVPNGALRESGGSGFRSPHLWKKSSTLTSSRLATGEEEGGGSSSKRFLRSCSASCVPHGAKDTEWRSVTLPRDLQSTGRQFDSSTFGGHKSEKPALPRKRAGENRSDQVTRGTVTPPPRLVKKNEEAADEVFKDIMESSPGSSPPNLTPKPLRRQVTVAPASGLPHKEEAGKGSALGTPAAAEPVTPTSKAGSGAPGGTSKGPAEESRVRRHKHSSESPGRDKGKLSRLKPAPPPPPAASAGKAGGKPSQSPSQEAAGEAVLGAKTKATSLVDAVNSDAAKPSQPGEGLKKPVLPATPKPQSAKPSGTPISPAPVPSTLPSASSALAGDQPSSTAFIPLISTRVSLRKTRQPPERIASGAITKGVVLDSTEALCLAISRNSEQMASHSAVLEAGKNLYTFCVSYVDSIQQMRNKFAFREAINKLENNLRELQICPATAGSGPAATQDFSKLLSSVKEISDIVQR
Sequence of Non-receptor tyrosine-protein kinase TYK2 (Homo sapiens) (P29597 whole entry): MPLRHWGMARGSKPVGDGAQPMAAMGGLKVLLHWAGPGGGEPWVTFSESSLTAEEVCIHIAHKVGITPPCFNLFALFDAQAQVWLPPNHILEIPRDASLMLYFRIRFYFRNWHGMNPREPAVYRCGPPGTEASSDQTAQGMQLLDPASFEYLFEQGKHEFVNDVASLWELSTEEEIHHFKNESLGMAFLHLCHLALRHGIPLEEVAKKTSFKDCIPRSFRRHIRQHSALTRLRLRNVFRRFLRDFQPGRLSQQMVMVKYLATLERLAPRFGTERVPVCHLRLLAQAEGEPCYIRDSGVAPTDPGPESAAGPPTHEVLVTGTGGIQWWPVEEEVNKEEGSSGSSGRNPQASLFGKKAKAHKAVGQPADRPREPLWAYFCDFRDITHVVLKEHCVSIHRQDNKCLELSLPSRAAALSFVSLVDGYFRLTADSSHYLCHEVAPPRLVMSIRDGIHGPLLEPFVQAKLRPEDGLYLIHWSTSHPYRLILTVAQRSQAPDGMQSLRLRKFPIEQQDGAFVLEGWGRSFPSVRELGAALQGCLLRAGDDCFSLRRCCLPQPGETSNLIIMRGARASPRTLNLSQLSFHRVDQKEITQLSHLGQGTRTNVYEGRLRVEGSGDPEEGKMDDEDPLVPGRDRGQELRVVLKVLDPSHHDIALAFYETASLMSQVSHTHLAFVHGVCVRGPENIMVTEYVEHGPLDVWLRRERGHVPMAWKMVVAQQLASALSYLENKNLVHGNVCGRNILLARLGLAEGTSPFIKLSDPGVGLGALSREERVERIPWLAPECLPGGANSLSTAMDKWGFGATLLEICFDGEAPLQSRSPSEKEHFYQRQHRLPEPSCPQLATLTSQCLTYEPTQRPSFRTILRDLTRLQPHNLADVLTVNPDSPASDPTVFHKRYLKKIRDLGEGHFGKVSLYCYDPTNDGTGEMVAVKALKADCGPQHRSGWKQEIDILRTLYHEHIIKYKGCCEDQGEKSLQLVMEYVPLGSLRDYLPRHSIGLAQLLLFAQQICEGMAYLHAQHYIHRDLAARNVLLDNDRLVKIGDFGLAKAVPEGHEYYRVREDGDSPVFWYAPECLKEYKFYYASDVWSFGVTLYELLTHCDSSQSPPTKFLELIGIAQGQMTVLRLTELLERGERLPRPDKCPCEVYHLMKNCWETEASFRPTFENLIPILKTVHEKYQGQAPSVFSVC
Sequence of Mitogen-activated protein kinase kinase kinase 6 (Homo sapiens) (O95382 whole entry): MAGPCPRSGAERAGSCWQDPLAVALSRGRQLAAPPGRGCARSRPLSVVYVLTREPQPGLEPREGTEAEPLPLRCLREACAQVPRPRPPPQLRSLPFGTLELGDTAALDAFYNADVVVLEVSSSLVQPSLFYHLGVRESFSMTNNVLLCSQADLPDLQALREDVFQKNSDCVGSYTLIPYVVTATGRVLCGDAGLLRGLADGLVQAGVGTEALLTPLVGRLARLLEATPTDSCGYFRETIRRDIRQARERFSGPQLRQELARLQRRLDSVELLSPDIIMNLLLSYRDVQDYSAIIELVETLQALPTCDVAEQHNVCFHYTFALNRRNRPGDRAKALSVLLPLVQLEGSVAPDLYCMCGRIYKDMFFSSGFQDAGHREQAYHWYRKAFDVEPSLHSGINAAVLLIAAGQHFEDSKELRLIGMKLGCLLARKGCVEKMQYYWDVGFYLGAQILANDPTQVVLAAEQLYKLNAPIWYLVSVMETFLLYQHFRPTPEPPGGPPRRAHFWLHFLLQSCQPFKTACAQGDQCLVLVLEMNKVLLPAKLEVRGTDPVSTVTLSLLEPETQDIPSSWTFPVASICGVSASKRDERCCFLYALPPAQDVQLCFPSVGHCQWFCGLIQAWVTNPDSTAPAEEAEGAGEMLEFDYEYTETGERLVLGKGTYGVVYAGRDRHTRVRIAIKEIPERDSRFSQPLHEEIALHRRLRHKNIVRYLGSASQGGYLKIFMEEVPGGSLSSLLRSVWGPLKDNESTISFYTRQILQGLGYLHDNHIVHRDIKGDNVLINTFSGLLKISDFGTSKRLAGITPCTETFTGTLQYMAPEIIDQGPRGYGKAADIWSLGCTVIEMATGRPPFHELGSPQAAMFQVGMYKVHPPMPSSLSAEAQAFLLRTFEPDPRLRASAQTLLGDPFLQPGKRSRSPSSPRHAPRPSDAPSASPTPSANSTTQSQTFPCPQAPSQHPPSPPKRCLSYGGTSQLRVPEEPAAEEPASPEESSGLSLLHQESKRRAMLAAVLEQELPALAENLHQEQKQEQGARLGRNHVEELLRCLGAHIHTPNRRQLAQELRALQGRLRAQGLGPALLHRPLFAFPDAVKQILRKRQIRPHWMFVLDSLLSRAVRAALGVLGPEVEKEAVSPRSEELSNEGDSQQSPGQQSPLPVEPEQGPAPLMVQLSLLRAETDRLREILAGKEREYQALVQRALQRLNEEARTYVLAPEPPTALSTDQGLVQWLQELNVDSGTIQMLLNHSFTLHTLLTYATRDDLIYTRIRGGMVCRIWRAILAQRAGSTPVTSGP
Sequence of Tyrosine-protein kinase CSK (Homo sapiens) (P41240 2-450 limits assumed): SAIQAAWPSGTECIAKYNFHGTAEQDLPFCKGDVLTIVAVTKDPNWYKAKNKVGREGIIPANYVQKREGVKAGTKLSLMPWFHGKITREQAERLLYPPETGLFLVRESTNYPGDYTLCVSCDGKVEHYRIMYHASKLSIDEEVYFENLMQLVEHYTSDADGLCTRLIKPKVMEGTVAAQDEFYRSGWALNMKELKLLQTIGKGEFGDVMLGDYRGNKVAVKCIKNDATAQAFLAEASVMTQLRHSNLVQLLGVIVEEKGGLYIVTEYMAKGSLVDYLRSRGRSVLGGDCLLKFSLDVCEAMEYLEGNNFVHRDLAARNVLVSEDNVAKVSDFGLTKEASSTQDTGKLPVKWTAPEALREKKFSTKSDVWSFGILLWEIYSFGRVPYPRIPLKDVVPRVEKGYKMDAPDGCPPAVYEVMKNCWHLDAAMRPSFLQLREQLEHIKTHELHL

## O=C(N1CCS(=O)(=O)CC1)N1C[C@H](c2ccc(OC(F)(F)F)cc2)C[C@H](c2nc(C3CC3)no2)C1 [BAY-386]
[1]
  % Inhibition of Control Agonist Response (Mean n=2): 29.2%
  % of Control Agonist Response (Mean n=2): 16.7%
[2]
  % Inhibition of Control Agonist Response (Mean n=2): 41.9%
  % of Control Agonist Response (Mean n=2): 0.7%
[3]
  residual activity: 80%
[4]
  residual activity: 100%
[5]
  residual activity: 91%
[6]
  residual activity: 100%
[7]
  residual activity: 100%
[8]
  residual activity: 100%
[9]
  residual activity: 91%
[10]
  residual activity: 93%
[11]
  residual activity: 100%
[12]
  residual activity: 100%
[13]
  residual activity: 89%
[14]
  residual activity: 0%
[15]
  residual activity: 95%
[16]
  residual activity: 100%
[17]
  residual activity: 100%
[18]
  residual activity: 66%
[19]
  residual activity: 100%
[20]
  residual activity: 88%
[21]
  residual activity: 79%
[22]
  residual activity: 98%
[23]
  residual activity: 94%
[24]
  residual activity: 100%
[25]
  residual activity: 99%
[26]
  residual activity: 97%
[27]
  residual activity: 100%
[28]
  residual activity: 100%
[29]
  residual activity: 100%
[30]
  residual activity: 100%
[31]
  residual activity: 100%
[32]
  residual activity: 100%
[33]
  residual activity: 100%
[34]
  residual activity: 100%
[35]
  residual activity: 100%
[36]
  residual activity: 94%
[37]
  residual activity: 53%
[38]
  residual activity: 94%
[39]
  residual activity: 100%
[40]
  residual activity: 93%
[41]
  residual activity: 100%
[42]
  residual activity: 89%
[43]
  inhibition: -4.72%
[44]
  inhibition: 11.8%

## Cc1noc([C@H]2C[C@@H](c3ccc(C(F)(F)F)cc3)CN(C(=O)N3CCS(=O)(=O)C3)C2)n1 [BAY-448]
[1]
  % Inhibition of Control Agonist Response (Mean n=2): 0.9%
  % of Control Agonist Response (Mean n=2): 6.9%
[2]
  % Inhibition of Control Agonist Response (Mean n=2): 29.1%
  % of Control Agonist Response (Mean n=2): -4.2%
[3]
  residual activity: 100%
[4]
  residual activity: 100%
[5]
  residual activity: 92%
[6]
  residual activity: 100%
[7]
  residual activity: 100%
[8]
  residual activity: 100%
[9]
  residual activity: 95%
[10]
  residual activity: 81%
[11]
  residual activity: 100%
[12]
  residual activity: 100%
[13]
  residual activity: 100%
[14]
  residual activity: 100%
[15]
  residual activity: 100%
[16]
  residual activity: 100%
[17]
  residual activity: 89%
[18]
  residual activity: 83%
[19]
  residual activity: 100%
[20]
  residual activity: 98%
[21]
  residual activity: 88%
[22]
  residual activity: 100%
[23]
  residual activity: 100%
[24]
  residual activity: 100%
[25]
  residual activity: 96%
[26]
  residual activity: 100%
[27]
  residual activity: 79%
[28]
  residual activity: 64%
[29]
  residual activity: 88%
[30]
  residual activity: 100%
[31]
  residual activity: 100%
[32]
  residual activity: 100%
[33]
  residual activity: 100%
[34]
  residual activity: 100%
[35]
  residual activity: 100%
[36]
  residual activity: 100%
[37]
  residual activity: 100%
[38]
  residual activity: 100%
[39]
  residual activity: 85%
[40]
  residual activity: 77%
[41]
  residual activity: 100%
[42]
  residual activity: 100%
[43]
  inhibition: -2.74%
[44]
  inhibition: 24%
